± gives the uncertainty stated by the source.
Assays:
[1] = tested on: Klebsiella pneumoniae ATCC 13882; test: onset of ureolytic pH increase; higher = more delayed ureolysis (inhibition)
Description: (§1)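 Klebsiella pneumoniae ATCC 13882 (start OD600 0.05) grown in M9U medium with 40 mM urea and phenol red plus inhibitor, in triplicate in 96-well plates. A557 and OD630 were read every 15 min for 24 h. Ureolysis was followed as the pH-related A557-A630: onset time, Gompertz-fit rate and final value. Growth was followed as OD630.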

[2] = tested on: Klebsiella pneumoniae ATCC 13882; test: final OD630 (growth) after 24 h; higher = more bacterial growth; extreme values may be limits of the assay
Description: as §1

[3] = tested on: Klebsiella pneumoniae ATCC 13882; test: rate of pH (A557-A630) increase, Gompertz fit (10^-4 s-1); higher = faster ureolysis; extreme values may be limits of the assay
Description: as §1

[4] = tested on: Klebsiella pneumoniae ATCC 13882; test: final pH-related absorbance (A557-A630) after 24 h (absorbance units); higher = more ureolysis; extreme values may be limits of the assay
Description: as §1

O=[N+]([O-])C(Br)(CO)CO [2-bromo-2-nitropropane-1.3-diol]
onset of ureolytic pH increase ([1]; 0.1 mM): > 25 h | onset of ureolytic pH increase ([1]; 1 mM): > 25 h | onset of ureolytic pH increase ([1]; 10 mM): > 25 h | final OD630 ([2]; 0.1 mM): 0 | final OD630 ([2]; 1 mM): 0 | final OD630 ([2]; 10 mM): 0 | rate of pH ([3]; 0.1 mM): 0 | rate of pH ([3]; 1 mM): 0 | rate of pH ([3]; 10 mM): 0 | final pH-related absorbance ([4]; 0.1 mM): 0 | final pH-related absorbance ([4]; 1 mM): 0 | final pH-related absorbance ([4]; 10 mM): 0

CNC(=O)NC [N.N'-Dimethylurea]
onset of ureolytic pH increase ([1]; 0.1 mM): 9.871 ± 0.0467 h | onset of ureolytic pH increase ([1]; 1 mM): 13.1 ± 0.483 h | onset of ureolytic pH increase ([1]; 10 mM): 0 min | final OD630 ([2]; 0.1 mM): 0.502 ± 0.0051 | final OD630 ([2]; 1 mM): 0.411 ± 0.018 | final OD630 ([2]; 10 mM): 0 | rate of pH ([3]; 0.1 mM): 1.69 ± 0.054 | rate of pH ([3]; 1 mM): 1.77 ± 0.022 | rate of pH ([3]; 10 mM): 0.0814 ± 0.0017 | final pH-related absorbance ([4]; 0.1 mM): 0.213 ± 0.004 | final pH-related absorbance ([4]; 1 mM): 0.197 ± 0.095 | final pH-related absorbance ([4]; 10 mM): 0.456 ± 0.0086

O=S([O-])[O-].[Na+].[Na+] [Sodium sulfite]
onset of ureolytic pH increase ([1]; 0.1 mM): 7 ± 0.217 h | onset of ureolytic pH increase ([1]; 1 mM): 7.4 ± 0.4 h | onset of ureolytic pH increase ([1]; 10 mM): 9.88 ± 0.125 h | final OD630 ([2]; 0.1 mM): 0.477 ± 0.013 | final OD630 ([2]; 1 mM): 0.504 ± 0.027 | final OD630 ([2]; 10 mM): 0.416 ± 0.004 | rate of pH ([3]; 0.1 mM): 2.1 ± 0.24 | rate of pH ([3]; 1 mM): 1.883 ± 0.013 | rate of pH ([3]; 10 mM): 0.984 ± 0.011 | final pH-related absorbance ([4]; 0.1 mM): 0.461 ± 0.054 | final pH-related absorbance ([4]; 1 mM): 0.373 ± 0.006 | final pH-related absorbance ([4]; 10 mM): 0.273 ± 0.011

NC(=S)Nc1cccc(C(=O)O)c1 [1-(3-Carboxyphenyl)-2-thiourea]
onset of ureolytic pH increase ([1]; 0.00075 mM): 7.27 ± 0.108 h | onset of ureolytic pH increase ([1]; 0.0075 mM): 7.06 ± 0.3 h | onset of ureolytic pH increase ([1]; 0.075 mM): 7.25 ± 0.107 h | final OD630 ([2]; 0.00075 mM): 0.489 ± 0.005 | final OD630 ([2]; 0.0075 mM): 0.51 ± 0.017 | final OD630 ([2]; 0.075 mM): 0.49 ± 0.01 | rate of pH ([3]; 0.00075 mM): 1.92 ± 0.078 | rate of pH ([3]; 0.0075 mM): 2.06 ± 0.18 | rate of pH ([3]; 0.075 mM): 2.15 ± 0.048 | final pH-related absorbance ([4]; 0.00075 mM): 0.246 ± 0.012 | final pH-related absorbance ([4]; 0.0075 mM): 0.27 ± 0.023 | final pH-related absorbance ([4]; 0.075 mM): 0.24 ± 0.011

N[C@@H](Cc1c[nH]cn1)C(=O)O [L-histidine]
onset of ureolytic pH increase ([1]; 0.1 mM): 6.141 ± 0.06 h | onset of ureolytic pH increase ([1]; 1 mM): 6.853 ± 0.0217 h | onset of ureolytic pH increase ([1]; 10 mM): 9.8 ± 0.0983 h | final OD630 ([2]; 0.1 mM): 0.709 ± 0.008 | final OD630 ([2]; 1 mM): 0.706 ± 0.007 | final OD630 ([2]; 10 mM): 0.715 ± 0.026 | rate of pH ([3]; 0.1 mM): 3.03 ± 0.049 | rate of pH ([3]; 1 mM): 3.09 ± 0.27 | rate of pH ([3]; 10 mM): 1.12 ± 0.078 | final pH-related absorbance ([4]; 0.1 mM): 0.485 ± 0.022 | final pH-related absorbance ([4]; 1 mM): 0.506 ± 0.007 | final pH-related absorbance ([4]; 10 mM): 0.63 ± 0.016

O=C(O)CNc1ccc(O)cc1 [N-(4-Hydroxyphenyl)glycine]
onset of ureolytic pH increase ([1]; 0.001 mM): 9.527 ± 0.0183 h | onset of ureolytic pH increase ([1]; 0.011 mM): 13.5 ± 0.25 h | onset of ureolytic pH increase ([1]; 0.112 mM): 0 min | final OD630 ([2]; 0.001 mM): 0.438 ± 0.009 | final OD630 ([2]; 0.011 mM): 0.357 ± 0.005 | final OD630 ([2]; 0.112 mM): 0 | rate of pH ([3]; 0.001 mM): 2.079 ± 0.0047 | rate of pH ([3]; 0.011 mM): 2.81 ± 0.3 | rate of pH ([3]; 0.112 mM): 0.632 ± 0.057 | final pH-related absorbance ([4]; 0.001 mM): 0.183 ± 0.003 | final pH-related absorbance ([4]; 0.011 mM): 0.107 ± 0.013 | final pH-related absorbance ([4]; 0.112 mM): 0.331 ± 0.042

[K+].[O]=[Mn](=[O])(=[O])[O-] [Potassium permanganate]
onset of ureolytic pH increase ([1]; 0.1 mM): 11.35 ± 0.107 h | onset of ureolytic pH increase ([1]; 1 mM): > 25 h | final OD630 ([2]; 0.1 mM): 0.444 ± 0.0025 | final OD630 ([2]; 1 mM): 0 | rate of pH ([3]; 0.1 mM): 1.65 ± 0.032 | rate of pH ([3]; 1 mM): 0 | final pH-related absorbance ([4]; 0.1 mM): 0.062 ± 0.0044 | final pH-related absorbance ([4]; 1 mM): 0

CC1=CC(=O)C(C)=CC1=O [2.5-dimethyl-1.4-benzoquinone]
onset of ureolytic pH increase ([1]; 0.011 mM): 9.905 ± 0.04 h | onset of ureolytic pH increase ([1]; 0.107 mM): 15.8 h | onset of ureolytic pH increase ([1]; 1.07 mM): 0 min | final OD630 ([2]; 0.011 mM): 0.33 ± 0.011 | final OD630 ([2]; 0.107 mM): 0.336 | final OD630 ([2]; 1.07 mM): 0 | rate of pH ([3]; 0.011 mM): 1.46 ± 0.047 | rate of pH ([3]; 0.107 mM): 1.97 | rate of pH ([3]; 1.07 mM): 0.535 ± 0.0079 | final pH-related absorbance ([4]; 0.011 mM): 0.152 ± 0.0068 | final pH-related absorbance ([4]; 0.107 mM): 0.116 | final pH-related absorbance ([4]; 1.07 mM): 0.475 ± 0.011

O=C(O)CCC(CC(=O)O)C(=O)O (stereo not drawn) [1,2,4-butanetricarboxylic acid]
onset of ureolytic pH increase ([1]; 0.1 mM): 11.425 ± 0.00233 h | onset of ureolytic pH increase ([1]; 1 mM): 11.31 ± 0.055 h | onset of ureolytic pH increase ([1]; 10 mM): > 15 h | final OD630 ([2]; 0.1 mM): 0.424 ± 0.0051 | final OD630 ([2]; 1 mM): 0.433 ± 0.0031 | final OD630 ([2]; 10 mM): 0 | rate of pH ([3]; 0.1 mM): 1.526 ± 0.014 | rate of pH ([3]; 1 mM): 1.58 ± 0.019 | rate of pH ([3]; 10 mM): 0 | final pH-related absorbance ([4]; 0.1 mM): 0.33 ± 0.0058 | final pH-related absorbance ([4]; 1 mM): 0.277 ± 0.0026 | final pH-related absorbance ([4]; 10 mM): 0

O=C(O)CNCC(=O)O [Iminodiacetic acid]
onset of ureolytic pH increase ([1]; 0.008 mM): 9.425 ± 0.0533 h | onset of ureolytic pH increase ([1]; 0.08 mM): 9.377 ± 0.025 h | onset of ureolytic pH increase ([1]; 0.802 mM): 11.1 ± 0.317 h | final OD630 ([2]; 0.008 mM): 0.44 ± 0.003 | final OD630 ([2]; 0.08 mM): 0.429 ± 0.003 | final OD630 ([2]; 0.802 mM): 0.373 ± 0.011 | rate of pH ([3]; 0.008 mM): 2.086 ± 0.011 | rate of pH ([3]; 0.08 mM): 2.13 ± 0.052 | rate of pH ([3]; 0.802 mM): 1.82 ± 0.045 | final pH-related absorbance ([4]; 0.008 mM): 0.184 ± 0.004 | final pH-related absorbance ([4]; 0.08 mM): 0.211 ± 0.017 | final pH-related absorbance ([4]; 0.802 mM): 0.209 ± 0.007

O=S(O)(O)=S [Sodium thiosulfate]
onset of ureolytic pH increase ([1]; 0.1 mM): 9.5 ± 0.112 h | onset of ureolytic pH increase ([1]; 1 mM): 9.93 ± 0.0833 h | onset of ureolytic pH increase ([1]; 10 mM): 10.2 ± 0.13 h | final OD630 ([2]; 0.1 mM): 0.476 ± 0.0014 | final OD630 ([2]; 1 mM): 0.457 ± 0.0043 | final OD630 ([2]; 10 mM): 0.454 ± 0.011 | rate of pH ([3]; 0.1 mM): 2.09 ± 0.021 | rate of pH ([3]; 1 mM): 2.11 ± 0.025 | rate of pH ([3]; 10 mM): 2.2095 ± 0.0016 | final pH-related absorbance ([4]; 0.1 mM): 0.154 ± 0.0011 | final pH-related absorbance ([4]; 1 mM): 0.14 ± 0.0017 | final pH-related absorbance ([4]; 10 mM): 0.142 ± 0.011

Reference: the supplement of paper PMC7244745
